Experimental data: paper PMC5902452, “In silico optimization of a guava antimicrobial peptide enables combinatorial exploration for peptide design” (Nature Communications, 2018)
In brackets after ≈: the same amount, converted by molar mass. Peptide text beside a SMILES is read from it.

Key:
[1] = tested on: methicillin-resistant S. aureus (MRSA); assay: Antibiofilm assay; assay type: cell-based, Staphylococcus aureus
Procedure: (§1) Overnight cultures of microorganisms [E. coli 0157, methicillin-resistant S. aureus (MRSA), K. pneumoniae 1825971, or C. albicans clinical isolate obtained from a blood culture maintained at LACEN (Laboratório Central de Saúde do Distrito Federal, a Brazilian reference laboratory for clinical isolates in Brasília, Brazil)] grown in LB broth (BD Difco) were diluted 1 in 100 in LB and Todd-Hewitt broth (BD Difco) or BM2 minimal medium [62 mM potassium phosphate buffer, pH 7.0, 7 mM (NH4)2SO4, 2 mM MgSO4, 10 μM FeSO4, 0.5% glucose], and 100 μL per well was added into 96-well round-bottom microplates. Absorbance at 600 nm was used to assess the planktonic cell growth. Non-adherent planktonic cells were removed from microtiter wells and washed twice with deionized water. Adherent cells were stained with 0.1% crystal violet for 20 min. The microplate wells were washed twice with deionized water, air dried, and solubilized with 110 μL of 70% ethanol. […] Biofilm formation was assessed by measuring the absorbance at 600 nm using a microplate reader (Bio-Tek Instruments, Inc., USA). The microdilution method for cationic peptides was used to determine the MIC for planktonic cells. Three biological replicates were performed for each experiment involving eight technical replicates.

[2] = tested on: C. albicans clinical isolate; assay: Antibiofilm assay (planktonic growth and biofilm formation, crystal violet); assay type: cell-based, Candida albicans
Procedure: as §1

[3] = tested on: E. coli ATCC 25922; assay type: cell-based, Escherichia coli
Procedure: Exponentially growing bacteria in LB were harvested by centrifugation, washed three times in PBS and suspended in the same buffer to a final concentration of 10^7 cfu mL^−1. One hundred microliters of this bacterial suspension was incubated with a dose of peptide corresponding to twofold the MIC. Then, aliquots of 10 µL were withdrawn at different times, diluted in LB, and spread onto LB agar plates. The cfu were counted after overnight incubation at 37 °C.

[4] = tested on: E. coli 0157; assay: Antibiofilm assay; assay type: cell-based, Escherichia coli
Procedure: as §1

[5] = tested on: P. aeruginosa H1001 (fliC::luxCDABE); assay type: cell-based, Pseudomonas aeruginosa; conditions: SPOT-synthesized unpurified crude peptide (~70% purity); bioluminescent engineered P. aeruginosa; BM2 medium; 4 h, 37 °C; reduction of luminescence; 200 to 3 μg mL−1 tested
Procedure: A peptide array composed of 20 peptides (15 guavanins, 4 Pg-AMP1 fragments, and magainin 2) was designed and synthesized by Kinexus Bioinformatics Corporation (Vancouver, BC). Peptides were produced in a standard mass of 80 μg by using cellulose support in SPOT technology. The crude synthetic peptides were obtained from cellulose membrane discs that had already been treated with ammonia gas to release the peptides from the membrane. Peptides were then dissolved overnight in distilled water and subsequently evaluated for their biological activities, as described below.
The antimicrobial activity of the synthesized peptides was evaluated against an engineered luminescent P. aeruginosa H1001 (fliC::luxCDABE) strain in 96-well microplates. Aqueous solutions of peptides released from the cellulose spots were diluted twofold in BM2 medium [62 mM potassium phosphate buffer pH 7; 2 mM MgSO4; 10 μM FeSO4; 0.4% (wt/vol) glucose] down the eight wells of a 96-well plate, achieving a final volume of 25 μL in each well. Subsequently, 50 μL of overnight culture of P. aeruginosa H1001 (fliC::luxCDABE) were subcultured in 5 mL of fresh LB media and grown until they reached an OD600 of 0.4. This growing bacteria culture was then diluted 4:100 (v/v) into fresh BM2 media and 25 μL of this diluted bacterial culture was transferred to the microplate wells containing 25 μL of peptide solution. The final peptide concentrations tested ranged from 200 to 3 μg mL^−1. The plates were incubated for 4 h at 37 °C with constant shaking at 50 rpm. Luminescence was measured on a Tecan […]luor Plus Microplate Reader (Tecan US, Morrisville, NC). The antimicrobial activity was evaluated by the ability of the peptides to reduce the luminescence of P. aeruginosa-lux strain compared to untreated cells. The AMP magainin 2 and the carbapenem meropenem were used as positive controls and distilled water was used as a negative control.

[6] = tested on: HEK-293 cells; assay: Cytotoxicity, MTT-based microassay; assay type: cell-based, human; conditions: purified peptide, HEK-293, 72 h, 37 °C, 12.5–200 µM, mean of three independent experiments in triplicate, read-out: Active concentration (inhibitory concentration 50, IC50)
Procedure: HEK-293 cells were cultured in DMEM medium, and incubated at 37 °C in a humidified atmosphere of 5% CO2. Cell viability was quantified after peptide incubation using a methylthiazolyldiphenyl-tetrazolium bromide (MTT)-based microassay. […] Then, 10 µL of MTT (5 mg mL^−1 in PBS) was added to each well and the cells were further incubated for 4 h in the dark. The formazan crystals formed by mitochondrial reductases in intact cells are insoluble in aqueous solutions and precipitate. Formazan crystals were dissolved using a solubilization solution (40% dimethylformamide in 2% glacial acetic acid, 16% sodium dodecyl sulfate, pH 4.7) followed by 1 h incubation at 37 °C under shaking (150 rpm). Finally, the absorbance of the resuspended formazan was measured at 570 nm. Data were analyzed with GraphPad Prism® 5.0 software to determine the inhibitory concentration 50 (IC50), which corresponds to the peptide concentration producing 50% cell death. Results were expressed as the mean of three independent experiments performed in triplicate.

[7] = tested on: P. aeruginosa strain PAO1; assay: Scarification skin infection mouse model; assay type: in vivo, female CD-1 mice
Procedure: P. aeruginosa strain PAO1 was grown to an optical density at 600 nm (OD600) of 1 in tryptic soy broth medium. Subsequently cells were washed twice with sterile PBS, and resuspended to a final concentration of 5 × 10^7 CFU in 50 μL. To generate skin infection, female CD-1 mice (6 weeks old) were anesthetized with isoflurane and had their backs shaved. A superficial linear skin abrasion was made with a needle in order to damage the stratum corneum and upper layer of the epidermis. Five minutes after wounding, an aliquot of 50 μL containing 5 × 10^7 CFU of bacteria in PBS was inoculated over each defined area containing the scratch with a pipette tip. One day after the infection, peptides were administered to the infected area. Animals were euthanized and the area of scarified skin was excised 2 and 4 days post-infection, homogenized using a bead beater for 20 min (25 Hz), and serially diluted for CFU quantification. Two independent experiments were performed with four mice per group in each case. Statistical significance was assessed using a two-way ANOVA. Animals were maintained in accordance with the Guide for the Care and Use of Laboratory Animals in an AAALAC-accredited facility. All procedures were approved by the MIT’s Institutional Animal Care and Use Committee (IACUC), protocol number 1016-064-19.

In the case of `CC[C@H](C)[C@H](NC(=O)[C@H](CCCNC(=N)N)NC(=O)[C@H](Cc1ccc(O)cc1)NC(=O)CNC(=O)[C@H](Cc1ccc(O)cc1)NC(=O)[C@H](CCCNC(=N)N)NC(=O)[C@H](CC(C)C)NC(=O)[C@H](C)NC(=O)[C@H](CCC(N)=O)NC(=O)[C@H](CCC(=O)O)NC(=O)[C@@H](NC(=O)[C@H](CCC(N)=O)NC(=O)[C@H](CCCNC(=N)N)NC(=O)[C@H](CCSC)NC(=O)[C@H](Cc1ccc(O)cc1)NC(=O)[C@H](CCC(N)=O)NC(=O)[C@@H](N)CCCNC(=N)N)[C@@H](C)CC)C(=O)N[C@@H](CO)C(=O)N[C@@H](CCCNC(=N)N)C(=O)N[C@@H](CCCNC(=N)N)C(N)=O` [Guavanin 2] (H-RQYMRQIEQALRYGYRISRR-NH2), the antibiofilm activity [1] is reported as “only able to reduce C. albicans biofilms”, the antibiofilm activity [2] is reported as “able to reduce C. albicans biofilms” and the “concentration from which biofilm formation is inhibited (p<0.05)” value ([2]; crystal violet, Student's t-test, three replicates) is reported as 32 µg/mL. The “concentration from which planktonic cells are affected (p<0.05)” value ([2]; planktonic cells not eliminated, Student's t-test, three replicates) was 16 µg/mL, the “colony-forming units remaining (from 10^7)” value ([3]; 12.5 µM (twofold above the MIC), 120 min) was ~ 10^5 colony-forming units and the “killing speed relative to [I^5, R^8] mastoparan” value ([3]; time–kill, E. coli) was “eightfold slower”. The antibiofilm activity [4] was “only able to reduce C. albicans biofilms”, the MIC [5] was 6.25 µg/mL (≈ 2.36 µM) and the IC50 [6] was over 200 µM. For the same molecule, the “reduction in bacterial counts” value ([7]; 6.25 μg mL−1 (lowest dose) applied to infected area 24 h after infection, after 4 days) was 3 log and the “effect on CFU counts / bacterial load (two-way ANOVA)” value ([7]; doses 6.25, 25 and 100 µg mL−1, 4 days post-infection, two experiments, four mice per group) was “significantly reduced CFU counts”.
